Activity calls are given as the source filed them.
Legend:
[1] = molecular target: T1, High affinity choline transporter 1 (Homo sapiens, UniProt Q9GZV3); experiment: CHT activators, dose response, cell-based, 10-point CRC, membrane potential dye (AID 602376); type: functional
T1 sequence (Q9GZV3 whole entry): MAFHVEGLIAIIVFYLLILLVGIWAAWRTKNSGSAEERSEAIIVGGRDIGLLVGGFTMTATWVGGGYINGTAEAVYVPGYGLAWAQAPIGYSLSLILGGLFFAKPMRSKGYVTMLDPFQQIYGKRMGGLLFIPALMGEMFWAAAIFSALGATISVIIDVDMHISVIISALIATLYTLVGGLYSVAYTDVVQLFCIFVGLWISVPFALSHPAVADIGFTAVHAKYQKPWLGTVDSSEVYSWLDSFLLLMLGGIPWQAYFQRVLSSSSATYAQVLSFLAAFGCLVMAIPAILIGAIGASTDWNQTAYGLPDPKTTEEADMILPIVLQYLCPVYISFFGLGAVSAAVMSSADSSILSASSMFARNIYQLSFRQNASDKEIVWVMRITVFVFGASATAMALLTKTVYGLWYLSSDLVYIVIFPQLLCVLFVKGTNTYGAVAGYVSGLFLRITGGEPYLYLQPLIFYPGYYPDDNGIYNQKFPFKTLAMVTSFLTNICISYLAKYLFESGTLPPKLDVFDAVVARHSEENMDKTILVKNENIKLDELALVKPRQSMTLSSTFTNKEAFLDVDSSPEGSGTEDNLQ

[2] = test system: CHO; experiment: cytotoxicity in TLR9-MyD88 CHO cells, dose response, cytotoxicity control for TLR9-MyD88 binding inhibitor project, cell-based, luminescence (AID 588339); type: functional, hamster; details: Cricetulus griseus;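 also: CHO cells stably coexpressing TLR9 and MyD88 fusions from primary screen; compound exposure lasted 48 hours before viability readout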
[3] = molecular target: T1, High affinity choline transporter 1; experiment: CHT inhibitors, dose response, cell-based, 5-point CRC, membrane potential dye (AID 504840); type: functional
[4] = molecular target: T2, Replicative DNA helicase DnaB (Mycobacterium tuberculosis, UniProt P9WMR3); experiment: DnaB intein splicing inhibitors, dose response, biochemical, cell-free fluorescence (AID 449749); type: functional
T2 sequence (P9WMR3 whole entry): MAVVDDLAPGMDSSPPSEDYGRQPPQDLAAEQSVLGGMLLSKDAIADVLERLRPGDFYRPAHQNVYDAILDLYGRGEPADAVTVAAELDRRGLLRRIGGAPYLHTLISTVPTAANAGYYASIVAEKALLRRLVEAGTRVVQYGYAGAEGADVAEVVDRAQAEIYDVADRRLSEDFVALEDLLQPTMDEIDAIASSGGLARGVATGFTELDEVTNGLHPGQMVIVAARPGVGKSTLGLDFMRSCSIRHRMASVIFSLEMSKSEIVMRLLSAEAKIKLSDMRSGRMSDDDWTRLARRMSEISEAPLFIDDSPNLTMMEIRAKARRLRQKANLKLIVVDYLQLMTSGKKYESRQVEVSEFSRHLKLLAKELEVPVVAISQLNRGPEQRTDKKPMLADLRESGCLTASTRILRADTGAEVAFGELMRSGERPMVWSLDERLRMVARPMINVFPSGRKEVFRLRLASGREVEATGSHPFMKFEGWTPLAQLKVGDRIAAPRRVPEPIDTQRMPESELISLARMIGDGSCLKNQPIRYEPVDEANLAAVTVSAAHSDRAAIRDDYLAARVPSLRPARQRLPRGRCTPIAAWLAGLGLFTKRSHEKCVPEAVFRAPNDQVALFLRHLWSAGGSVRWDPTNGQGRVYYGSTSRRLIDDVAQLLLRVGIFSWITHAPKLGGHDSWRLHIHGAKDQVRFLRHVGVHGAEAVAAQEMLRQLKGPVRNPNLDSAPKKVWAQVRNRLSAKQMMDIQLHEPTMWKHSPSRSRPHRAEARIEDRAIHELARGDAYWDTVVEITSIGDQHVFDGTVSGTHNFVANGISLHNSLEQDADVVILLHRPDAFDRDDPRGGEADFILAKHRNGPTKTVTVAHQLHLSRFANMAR

[5] = HepG2 cell cytotoxicity, dose response, cytotoxicity control for Shn3 inhibitor project, CellTiter-Glo, cherry-picked (AID 624134); type: functional, cell-based
[6] = control 3'UTR Renilla luciferase suppression, dose response, counter-screen for Shn3 inhibitor project, cell-based, Clone20-Shn3RL, cherry-picked (AID 624133); type: functional
[7] = molecular target: Beta Lactamase (Pseudomonas aeruginosa, UniProt Q932Y6); experiment: beta-lactamase reporter inhibitor potency, dose response, artefact control for TLR9-MyD88 binding inhibitor project, BLA reporter cells, FRET fluorescence (AID 588341); type: cell-based;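 also: cell based assay in CHO-K1 cells stably expressing beta-lactamase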
[8] = Shn3 3'UTR reporter inhibitors, dose response, cell-based, Clone20 osteoblasts, firefly luciferase, cherry-picked (AID 624132); type: functional;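 also: firefly luciferase luminescence from reporter carrying the Shn3 3'UTR in osteoblasts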
[9] = molecular target: T3, Protein RecA (Mycobacterium tuberculosis, UniProt P9WHJ3); experiment: Fluorescence Cell-Free Homogeneous Dose Retest to Identify Inhibitors of RecA-Intein Splicing Activity. [Related pubchem assays (depositor defined):AID2097, AID2223, AID489010, AID492950]; type: functional
T3 sequence (P9WHJ3 whole entry): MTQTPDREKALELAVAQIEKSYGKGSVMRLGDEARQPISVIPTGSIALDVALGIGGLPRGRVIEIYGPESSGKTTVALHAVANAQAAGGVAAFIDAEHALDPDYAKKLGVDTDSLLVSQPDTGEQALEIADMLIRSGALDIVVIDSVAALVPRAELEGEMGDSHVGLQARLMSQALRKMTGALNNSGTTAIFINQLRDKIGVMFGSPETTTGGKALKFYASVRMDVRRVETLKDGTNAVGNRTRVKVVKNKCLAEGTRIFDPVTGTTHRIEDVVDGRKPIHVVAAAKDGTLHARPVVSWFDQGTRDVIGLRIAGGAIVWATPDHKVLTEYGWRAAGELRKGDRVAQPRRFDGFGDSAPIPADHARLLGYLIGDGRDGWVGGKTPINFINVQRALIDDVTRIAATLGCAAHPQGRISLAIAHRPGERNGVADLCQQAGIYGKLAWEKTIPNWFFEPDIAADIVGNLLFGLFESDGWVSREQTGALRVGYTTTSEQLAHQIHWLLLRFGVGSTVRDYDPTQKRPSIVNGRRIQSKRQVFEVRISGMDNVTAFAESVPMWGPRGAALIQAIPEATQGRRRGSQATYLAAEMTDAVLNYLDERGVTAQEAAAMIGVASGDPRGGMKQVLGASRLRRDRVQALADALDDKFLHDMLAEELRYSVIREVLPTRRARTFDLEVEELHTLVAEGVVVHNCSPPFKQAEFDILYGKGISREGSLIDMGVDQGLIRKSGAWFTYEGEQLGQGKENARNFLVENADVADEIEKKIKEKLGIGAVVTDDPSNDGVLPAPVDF

[10] = test system: INS1; experiment: inhibitors of cytokine-induced nitrite release, dose response, cell-based, Griess absorbance, INS-1E, dry powder, set 2 (AID 488868); type: functional; details: Rattus norvegicus
[11] = molecular target: T4, Neuropeptides B/W receptor type 1 (Homo sapiens, UniProt P48145); experiment: GPR7 antagonist potency, late-stage follow-up, cell-based, fluorescence, dose response, set 6 (AID 588583); type: functional
T4 sequence (P48145 whole entry): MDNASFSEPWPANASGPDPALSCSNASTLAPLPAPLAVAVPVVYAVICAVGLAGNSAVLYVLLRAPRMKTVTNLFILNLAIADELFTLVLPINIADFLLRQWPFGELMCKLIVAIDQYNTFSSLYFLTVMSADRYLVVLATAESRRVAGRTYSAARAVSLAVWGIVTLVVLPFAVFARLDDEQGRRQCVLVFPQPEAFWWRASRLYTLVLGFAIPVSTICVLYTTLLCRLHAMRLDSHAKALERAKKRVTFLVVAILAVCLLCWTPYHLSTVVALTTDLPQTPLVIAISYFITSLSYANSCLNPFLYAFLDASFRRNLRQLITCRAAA

[12] = molecular target: Melanin-concentrating hormone receptor 1 (Homo sapiens, UniProt Q99705); experiment: Late-stage fluorescence-based counterscreen for antagonists of the G-protein coupled receptor 7 (GPR7): cell-based dose response assay to identify antagonists of the melanin-concentrating hormone receptor 1 (MCHR1) Set 6.; type: functional
[13] = molecular target: RAC-gamma serine/threonine-protein kinase (Homo sapiens, UniProt Q9Y243); type: functional
[14] = molecular target: T5, cAMP-dependent protein kinase catalytic subunit PRKX (Homo sapiens, UniProt P51817); type: functional
T5 sequence (P51817 whole entry): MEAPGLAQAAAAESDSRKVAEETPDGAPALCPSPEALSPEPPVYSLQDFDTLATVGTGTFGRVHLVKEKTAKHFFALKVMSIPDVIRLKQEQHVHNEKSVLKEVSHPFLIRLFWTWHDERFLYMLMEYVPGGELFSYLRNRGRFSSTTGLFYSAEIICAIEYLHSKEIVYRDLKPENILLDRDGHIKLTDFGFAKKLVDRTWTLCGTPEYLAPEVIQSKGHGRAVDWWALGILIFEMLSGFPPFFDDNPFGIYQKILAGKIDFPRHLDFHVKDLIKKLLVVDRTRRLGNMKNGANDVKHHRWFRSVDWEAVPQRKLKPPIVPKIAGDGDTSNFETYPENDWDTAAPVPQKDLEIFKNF

[15] = molecular target: Serine/threonine-protein kinase pim-3 (Homo sapiens, UniProt Q86V86); type: functional;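 also: value obtained as one member of a broad kinase panel profiling effort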
[16] = molecular target: Protein kinase C iota type (Homo sapiens, UniProt P41743); type: functional;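 also: measured within a kinome-wide kinase panel, PRKCI as panel member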
[17] = molecular target: Casein kinase I isoform alpha (Homo sapiens, UniProt P48729); type: functional
[18] = molecular target: Calcium/calmodulin-dependent protein kinase kinase 2 (Homo sapiens, UniProt Q96RR4); experiment: Navigating the Kinome. Panel member name: CAMKK2; type: functional
[19] = molecular target: MAP kinase-activated protein kinase 5 (Homo sapiens, UniProt Q8IW41); type: functional;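 also: measured as one member of a kinome panel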
[20] = molecular target: Mitogen-activated protein kinase 14 (Homo sapiens, UniProt Q16539); type: functional;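 also: part of a kinome-wide panel, MAPK14 entry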
[21] = molecular target: RAC-alpha serine/threonine-protein kinase (Homo sapiens, UniProt P31749); type: functional;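 also: AKT1 affinity measured as one member of a kinome-wide kinase profiling panel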
[22] = molecular target: Calcium/calmodulin-dependent protein kinase type II subunit beta (Homo sapiens, UniProt Q13554); type: functional
[23] = molecular target: Dual specificity tyrosine-phosphorylation-regulated kinase 1B (Homo sapiens, UniProt Q9Y463); experiment: Navigating the Kinome. Panel member name: DYRK1B; type: functional
[24] = molecular target: cGMP-dependent protein kinase 1 (Homo sapiens, UniProt Q13976); type: functional;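 also: value from a kinome panel screen with PRKG1 as the panel member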
[25] = molecular target: Serine/threonine-protein kinase pim-2 (Homo sapiens, UniProt Q9P1W9); type: functional;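 also: value comes from a broad kinase panel profiling study in which PIM2 was one of the panel members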
[26] = molecular target: Serine/threonine-protein kinase pim-1 (Homo sapiens, UniProt P11309); type: functional
[27] = molecular target: Serine/threonine-protein kinase D2 (Homo sapiens, UniProt Q9BZL6); type: functional;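 also: measured against PRKD2 as one member of a kinome-wide kinase profiling panel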
[28] = molecular target: Cyclin-dependent kinase 9 (Homo sapiens, UniProt P50750); type: functional;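 also: value from the CDK9 entry of a kinome-spanning kinase panel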
[29] = molecular target: Casein kinase I isoform delta (Homo sapiens, UniProt P48730); type: functional;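 also: measured as one member (CSNK1D) of a kinome panel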
[30] = molecular target: Protein kinase C gamma type (Homo sapiens, UniProt P05129); type: functional
[31] = molecular target: Dual specificity tyrosine-phosphorylation-regulated kinase 4 (Homo sapiens, UniProt Q9NR20); type: functional
[32] = molecular target: Homeodomain-interacting protein kinase 2 (Homo sapiens, UniProt Q9H2X6); type: functional;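 also: measured within a kinome-wide kinase profiling panel, HIPK2 being one panel member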

Beta Lactamase, sequence (Q932Y6 whole entry): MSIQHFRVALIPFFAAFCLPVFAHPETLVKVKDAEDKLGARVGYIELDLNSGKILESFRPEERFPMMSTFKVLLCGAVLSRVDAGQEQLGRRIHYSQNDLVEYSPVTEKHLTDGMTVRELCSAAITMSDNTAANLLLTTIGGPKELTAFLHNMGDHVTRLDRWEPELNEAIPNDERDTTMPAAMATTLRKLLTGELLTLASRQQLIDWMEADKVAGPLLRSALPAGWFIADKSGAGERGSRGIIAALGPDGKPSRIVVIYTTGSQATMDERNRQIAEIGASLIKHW
Serine/threonine-protein kinase pim-2, sequence (Q9P1W9 whole entry): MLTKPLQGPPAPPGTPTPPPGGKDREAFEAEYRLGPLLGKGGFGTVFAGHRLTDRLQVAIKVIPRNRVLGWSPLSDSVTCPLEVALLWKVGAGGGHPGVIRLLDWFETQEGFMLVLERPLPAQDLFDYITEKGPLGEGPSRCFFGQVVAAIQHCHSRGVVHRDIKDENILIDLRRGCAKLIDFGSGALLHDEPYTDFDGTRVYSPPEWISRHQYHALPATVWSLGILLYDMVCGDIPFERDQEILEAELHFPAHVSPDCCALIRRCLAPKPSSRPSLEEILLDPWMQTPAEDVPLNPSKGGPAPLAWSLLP
Calcium/calmodulin-dependent protein kinase kinase 2, sequence (Q96RR4 whole entry): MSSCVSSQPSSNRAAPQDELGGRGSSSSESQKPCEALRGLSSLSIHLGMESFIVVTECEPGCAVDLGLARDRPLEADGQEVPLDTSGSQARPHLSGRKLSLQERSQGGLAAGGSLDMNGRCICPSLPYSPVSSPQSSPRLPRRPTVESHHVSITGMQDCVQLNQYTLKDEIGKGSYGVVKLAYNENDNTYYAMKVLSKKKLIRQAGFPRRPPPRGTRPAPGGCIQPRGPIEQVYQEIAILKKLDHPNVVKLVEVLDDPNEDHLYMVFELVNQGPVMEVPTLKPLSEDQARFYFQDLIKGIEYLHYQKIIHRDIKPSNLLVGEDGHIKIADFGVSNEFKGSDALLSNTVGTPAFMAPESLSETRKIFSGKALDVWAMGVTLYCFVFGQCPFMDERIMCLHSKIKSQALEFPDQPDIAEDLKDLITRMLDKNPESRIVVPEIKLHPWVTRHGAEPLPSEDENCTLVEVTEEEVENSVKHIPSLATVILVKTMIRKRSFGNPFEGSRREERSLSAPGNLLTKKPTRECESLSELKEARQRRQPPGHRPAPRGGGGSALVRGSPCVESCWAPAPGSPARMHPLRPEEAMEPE
Serine/threonine-protein kinase D2, sequence (Q9BZL6 whole entry): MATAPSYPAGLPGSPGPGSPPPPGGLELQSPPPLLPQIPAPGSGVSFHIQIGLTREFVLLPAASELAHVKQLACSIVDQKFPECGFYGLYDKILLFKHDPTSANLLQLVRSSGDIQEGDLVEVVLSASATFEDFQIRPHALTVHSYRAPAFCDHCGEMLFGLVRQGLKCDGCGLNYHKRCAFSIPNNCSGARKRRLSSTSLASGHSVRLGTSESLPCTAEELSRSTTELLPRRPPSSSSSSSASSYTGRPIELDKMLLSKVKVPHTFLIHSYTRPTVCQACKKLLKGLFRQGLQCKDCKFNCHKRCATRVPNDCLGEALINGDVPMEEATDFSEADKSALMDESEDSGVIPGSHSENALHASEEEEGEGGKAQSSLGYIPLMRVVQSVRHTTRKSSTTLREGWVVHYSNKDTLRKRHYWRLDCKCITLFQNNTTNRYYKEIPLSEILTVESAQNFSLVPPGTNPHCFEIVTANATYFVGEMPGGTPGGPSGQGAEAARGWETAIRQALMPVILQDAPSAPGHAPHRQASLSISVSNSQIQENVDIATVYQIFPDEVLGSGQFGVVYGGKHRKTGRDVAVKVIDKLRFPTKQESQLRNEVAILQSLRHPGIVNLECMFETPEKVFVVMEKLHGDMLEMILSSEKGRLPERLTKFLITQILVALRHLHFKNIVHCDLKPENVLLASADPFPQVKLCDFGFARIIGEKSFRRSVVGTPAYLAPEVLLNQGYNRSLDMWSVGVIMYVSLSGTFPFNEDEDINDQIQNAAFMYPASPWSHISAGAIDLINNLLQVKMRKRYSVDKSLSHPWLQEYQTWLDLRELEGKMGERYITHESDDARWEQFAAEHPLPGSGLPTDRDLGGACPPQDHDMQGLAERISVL
Casein kinase I isoform delta, sequence (P48730 whole entry, canonical isoform): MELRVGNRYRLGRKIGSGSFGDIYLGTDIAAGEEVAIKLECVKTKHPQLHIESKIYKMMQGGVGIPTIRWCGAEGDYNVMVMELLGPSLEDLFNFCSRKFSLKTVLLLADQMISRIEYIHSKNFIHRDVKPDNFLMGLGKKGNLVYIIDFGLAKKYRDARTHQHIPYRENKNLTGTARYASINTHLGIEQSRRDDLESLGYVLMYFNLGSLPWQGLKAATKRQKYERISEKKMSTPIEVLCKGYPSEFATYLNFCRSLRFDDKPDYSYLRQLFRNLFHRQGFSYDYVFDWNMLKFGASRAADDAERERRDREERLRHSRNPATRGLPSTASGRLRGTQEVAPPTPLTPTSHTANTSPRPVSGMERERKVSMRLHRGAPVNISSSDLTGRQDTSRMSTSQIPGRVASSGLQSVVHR
Melanin-concentrating hormone receptor 1, sequence (Q99705 whole entry): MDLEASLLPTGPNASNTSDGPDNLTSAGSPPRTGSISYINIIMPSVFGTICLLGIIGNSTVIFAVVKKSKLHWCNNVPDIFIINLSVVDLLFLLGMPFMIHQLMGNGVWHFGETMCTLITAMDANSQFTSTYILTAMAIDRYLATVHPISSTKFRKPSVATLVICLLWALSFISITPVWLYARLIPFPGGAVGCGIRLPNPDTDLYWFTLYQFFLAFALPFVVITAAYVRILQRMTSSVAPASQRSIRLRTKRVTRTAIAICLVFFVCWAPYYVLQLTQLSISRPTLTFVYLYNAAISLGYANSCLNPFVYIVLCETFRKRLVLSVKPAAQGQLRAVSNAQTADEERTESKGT
Calcium/calmodulin-dependent protein kinase type II subunit beta, sequence (Q13554 whole entry): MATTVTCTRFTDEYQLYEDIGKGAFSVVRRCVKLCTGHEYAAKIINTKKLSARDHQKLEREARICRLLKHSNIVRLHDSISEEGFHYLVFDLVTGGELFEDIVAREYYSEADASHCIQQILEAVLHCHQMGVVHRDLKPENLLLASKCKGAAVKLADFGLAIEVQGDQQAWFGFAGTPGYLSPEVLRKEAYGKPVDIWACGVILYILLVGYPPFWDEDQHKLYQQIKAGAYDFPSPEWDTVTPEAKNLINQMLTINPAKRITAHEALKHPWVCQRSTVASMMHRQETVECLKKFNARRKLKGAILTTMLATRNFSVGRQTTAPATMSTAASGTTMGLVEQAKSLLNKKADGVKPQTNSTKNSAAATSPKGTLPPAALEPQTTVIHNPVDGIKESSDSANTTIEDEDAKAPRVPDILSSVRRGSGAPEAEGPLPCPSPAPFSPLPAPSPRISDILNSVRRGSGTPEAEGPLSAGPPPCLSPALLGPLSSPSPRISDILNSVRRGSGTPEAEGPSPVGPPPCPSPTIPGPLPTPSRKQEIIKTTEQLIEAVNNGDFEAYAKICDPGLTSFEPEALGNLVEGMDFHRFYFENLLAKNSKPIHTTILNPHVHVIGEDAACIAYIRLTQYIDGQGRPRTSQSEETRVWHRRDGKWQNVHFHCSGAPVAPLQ
Casein kinase I isoform alpha, sequence (P48729 whole entry, canonical isoform): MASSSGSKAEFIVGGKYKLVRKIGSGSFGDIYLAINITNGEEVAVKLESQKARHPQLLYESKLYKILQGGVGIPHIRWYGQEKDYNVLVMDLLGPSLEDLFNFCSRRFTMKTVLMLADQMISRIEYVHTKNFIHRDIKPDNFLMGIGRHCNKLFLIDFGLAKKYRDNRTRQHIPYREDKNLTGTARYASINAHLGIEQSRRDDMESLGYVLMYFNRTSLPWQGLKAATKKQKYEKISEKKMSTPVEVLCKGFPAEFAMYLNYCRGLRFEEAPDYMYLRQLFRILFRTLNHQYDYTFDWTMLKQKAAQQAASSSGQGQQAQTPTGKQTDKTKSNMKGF

## COc1ccc(N2C(=O)/C(=C\c3ccco3)N=C2SCC(=O)N(C(C)C)C(C)C)cc1Cl
[1]
  EC50: 17.6 µM (active)

## COc1cccc(NC(=O)c2nc(S(C)(=O)=O)ncc2Cl)c1
[2]
  IC50: 5.41 µM (active)
[3]
  IC50: 14.5 µM (active)
[4]
  AC50: 111 nM (inconclusive)
[5]
  AC50: 22 µM (active)
[6]
  AC50: 11.5 µM (active)
[7]
  IC50: 8.9 µM (active)
[8]
  AC50: 834 nM (active)
[9]
  EC50: 6.17 µM (active)

## C[C@@H]1CN([C@@H](C)CO)C(=O)c2cccc(NC(=O)Nc3cccc4ccccc34)c2O[C@H]1CN(C)S(=O)(=O)c1ccccc1
[10]
  AC50: 36.1 µM (active)

## N#CC(c1ccc(C(F)(F)F)cc1)c1c(Cl)cnn(Cc2cccc3ccccc23)c1=O (configuration not stated)
[11]
  IC50: 699 nM (active)
[12]
  IC50: 699 nM (active)

## COc1cc(Nc2ncc(F)c(Nc3ccc4c(n3)NC(=O)C(C)(C)O4)n2)cc(OC)c1OC [R-406]
[13]
  Ki: > 10 µM (inactive)
[14]
  Ki: > 2.51 µM (inactive)
[15]
  Ki: 631 nM (active)
[16]
  Ki: > 5.01 µM (inactive)
[17]
  Ki: > 5.01 µM (inactive)
[18]
  Ki: > 2.51 µM (inactive)
[19]
  Ki: > 1.58 µM (inactive)
[20]
  Ki: > 3.98 µM (inactive)
[21]
  Ki: > 7.94 µM (inactive)
[22]
  Ki: > 7.94 µM (inactive)
[23]
  Ki: > 2.51 µM (inactive)
[24]
  Ki: > 2 µM (inactive)
[25]
  Ki: > 1.58 µM (inactive)
[26]
  Ki: > 6.31 µM (inactive)
[27]
  Ki: 631 nM (active)
[28]
  Ki: > 1.58 µM (inactive)
[29]
  Ki: > 7.94 µM (inactive)
[30]
  Ki: 251 nM (active)
[31]
  Ki: 1.58 µM (active)
[32]
  Ki: 200 nM (active)

From ChEMBL document CHEMBL1201862, “PubChem BioAssay data set” (2004)
